{"source": "paper PMC3479967", "about": "(Evidence-based Complementary and Alternative Medicine : eCAM, 2012)", "key": {"UGT1A4": {"target": "T1, UGT1A4 (Homo sapiens, UniProt P22310)", "T1 construct": "purchased BD Gentest Corp. (Woburn, MA, USA); host or cells: baculovirus-infected insect cells", "T1 sequence (P22310 29-534)": "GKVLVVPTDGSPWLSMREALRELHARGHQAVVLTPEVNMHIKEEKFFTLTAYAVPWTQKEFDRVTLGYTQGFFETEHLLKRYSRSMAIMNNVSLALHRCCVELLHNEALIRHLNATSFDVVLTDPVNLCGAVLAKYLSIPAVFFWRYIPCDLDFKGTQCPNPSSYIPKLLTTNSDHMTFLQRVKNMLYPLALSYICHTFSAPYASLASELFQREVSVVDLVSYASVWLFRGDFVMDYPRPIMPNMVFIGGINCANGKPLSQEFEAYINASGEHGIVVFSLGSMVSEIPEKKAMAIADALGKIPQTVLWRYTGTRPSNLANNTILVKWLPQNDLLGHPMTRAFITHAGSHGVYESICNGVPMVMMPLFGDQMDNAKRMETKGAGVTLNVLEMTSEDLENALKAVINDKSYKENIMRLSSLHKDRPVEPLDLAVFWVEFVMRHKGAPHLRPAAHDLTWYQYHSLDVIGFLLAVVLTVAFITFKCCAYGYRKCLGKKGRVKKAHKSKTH", "test": "Inhibition of recombinant UGT1A4 activity (TFP glucuronidation)", "format": "biochemical", "conditions": "recombinant UGT1A4", "method": "TFP was used as the substrate for UGT1A4. Trifluoperazine glucuronide (TFPG) formation was measured using a modification of the method reported. […] Reactions were initiated by the addition of UDPGA and incubations were performed at 37°C in a shaking water bath for 20 min. Incubations were terminated by the addition of 4% acetic acid/96% methanol (0.2 mL) and then centrifuged at 20,500 ×g for 15 min. A 40 μL aliquot of the supernatant fraction was injected into the HPLC column. […] A gradient mobile phase consisting initially of 30 : 70, mobile phase A (acetonitrile) verse mobile phase B (0.5% formic acid/water) was brought to a composition of 90 : 10 in 10 min which was held for 7 min, all at a flow rate of 1 mL/min. Column eluant was monitored by UV absorbance 256 nm. […] The negative controls are the incubation without UDPGA."}, "UGT2B7": {"target": "T2, UGT2B7 (Homo sapiens, UniProt P16662)", "T2 sequence (P16662 24-529)": "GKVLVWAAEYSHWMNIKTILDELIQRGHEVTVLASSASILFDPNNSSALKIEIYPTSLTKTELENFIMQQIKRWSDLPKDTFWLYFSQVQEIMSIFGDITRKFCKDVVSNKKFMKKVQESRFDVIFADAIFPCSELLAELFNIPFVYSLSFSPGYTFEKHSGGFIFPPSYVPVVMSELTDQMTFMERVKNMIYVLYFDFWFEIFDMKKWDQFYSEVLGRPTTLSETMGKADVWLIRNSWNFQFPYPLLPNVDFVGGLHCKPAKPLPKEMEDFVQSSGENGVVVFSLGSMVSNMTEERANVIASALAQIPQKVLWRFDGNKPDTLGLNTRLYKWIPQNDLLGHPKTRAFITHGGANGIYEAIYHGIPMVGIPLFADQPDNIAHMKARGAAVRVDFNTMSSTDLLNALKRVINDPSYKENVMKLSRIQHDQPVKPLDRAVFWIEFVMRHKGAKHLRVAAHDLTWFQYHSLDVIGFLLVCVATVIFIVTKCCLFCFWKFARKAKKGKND", "test": "Inhibition of recombinant UGT2B7 activity (4-MU glucuronidation)", "method": "(§1) A panel of recombinant human UGT supersomes (UGT1A1, UGT1A3, UGT1A4, UGT1A6, UGT1A7, UGT1A8, UGT1A9, UGT1A10, UGT2B4, UGT2B7, UGT2B15, and UGT2B17) expressed in baculovirus-infected insect cells were purchased from BD Gentest Corp. (Woburn, MA, USA).\n(§2) 4-MU, a nonselective substrate of UGTs, was used as probe substrate for all UGTs except UGT1A4. Incubations with each individual enzyme were conducted using conditions previously described. There was a 5 min preincubation step at 37°C before the reaction was started by addition of UDPGA. The incubation mixtures were then centrifuged at 20,500 ×g for 15 min to obtain the supernatant. Aliquots (20 μL) were then analyzed by HPLC. The HPLC system (SHIMADZU, Kyoto, Japan) consisted of an SCL-10A system controller, two LC-10AT pumps, a SIL-10A auto injector, and a SPD-10AVP UV detector. Chromatographic separation was achieved using a Kromasil ODS column (4.6 × 150 mm I.D., 5 μm particle size) at a flow rate of 1 mL/min and UV detection at 316 nm. The mobile phase consisted of 10 mM KH2PO4, pH 2.7 (A) and acetonitrile (B). The following gradient was applied at a flow rate of 1 mL/min: 0–4 min 80% A and 20% B, 4.1–8 min 50% A and 50% B, 8.1–12 min, 30% A and 70% B. All experiments were performed in two independent experiments in duplicate.\n(§3) A typical incubation mixture contained recombinant human UGTs, 5 mM MgCl2, 5 mM UDPGA, 50 μg/mg protein alamethicin, 50 mM Tris-HCl buffer (pH 7.4), and various probe substrates of UGTs in the absence or presence of different concentrations of inhibitors. […] The final concentration of DMSO in the incubation system was 1% (v/v). […] Known UGT inhibitors were used as positive controls: diclofenac for UGT1A1, UGT1A6, UGT1A7, and UGT1A9; androsterone for UGT1A3, UGT2B7, and UGT2B15, phenylbutazone for UGT1A8 and UGT1A10, and hecogenin for UGT1A4, respectively. There is no positive control reported available for UGT2B4 and UGT2B17. The negative controls are the incubation without UDPGA. […] The final concentration of DMSO in the incubation system was 1% (v/v). […] There was a 5 min preincubation step at 37°C before the reaction was started by the addition of UDPGA. Incubation times were 120 min for UGT1A1, UGT1A10, UGT2B4, UGT2B15, and UGT2B17, 75 min for UGT1A3, and 30 min for UGT1A4, UGT1A6, UGT1A7, UGT1A8, and UGT1A9. The reactions were quenched by adding 100 μL acetonitrile and internal standard. The incubation mixtures were then centrifuged at 20,500 ×g for 15 min to obtain the supernatant. An aliquot of the supernatant was used for HPLC analysis as described above. All experiments were performed in two independent experiments in duplicate.\nInhibition data from experiments were graphically represented by Dixon plots. K i values were calculated by nonlinear regression using the equations for competitive inhibition (1), noncompetitive inhibition (2), or mixed inhibition (3), [22] […] The type of inhibition was determined from the enzyme inhibition models. Goodness of fit to kinetic and inhibition models was assessed from the F statistic, r ^2 values, parameter standard error estimates, and 95% confidence intervals. […]"}, "UGT1A7": {"target": "T3, UGT1A7 (Homo sapiens, UniProt Q9HAW7)", "T3 sequence (Q9HAW7 26-530)": "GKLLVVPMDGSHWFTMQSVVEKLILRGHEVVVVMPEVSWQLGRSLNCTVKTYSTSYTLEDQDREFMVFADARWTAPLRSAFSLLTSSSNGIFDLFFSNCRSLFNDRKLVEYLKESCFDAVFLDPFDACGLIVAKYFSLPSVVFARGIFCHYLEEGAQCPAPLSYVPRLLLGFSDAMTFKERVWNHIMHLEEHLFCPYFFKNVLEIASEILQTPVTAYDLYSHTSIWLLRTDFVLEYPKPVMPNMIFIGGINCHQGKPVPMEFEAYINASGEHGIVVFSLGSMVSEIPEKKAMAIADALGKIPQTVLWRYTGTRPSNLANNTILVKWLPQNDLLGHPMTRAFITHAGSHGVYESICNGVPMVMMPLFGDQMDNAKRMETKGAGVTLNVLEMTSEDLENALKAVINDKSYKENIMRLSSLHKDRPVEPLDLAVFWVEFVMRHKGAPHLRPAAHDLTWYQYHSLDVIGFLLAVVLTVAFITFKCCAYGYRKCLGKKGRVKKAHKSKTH", "test": "Inhibition of recombinant UGT1A7 activity (4-MU glucuronidation)", "conditions": "recombinant UGT1A7", "method": "as §1, §2, §3\nInhibition data from experiments were graphically represented by Dixon plots. K i values were calculated by nonlinear regression using the equations for competitive inhibition (1), noncompetitive inhibition (2), or mixed inhibition (3), [22] (1) v =VmaxS/Km(1+(I/Ki))+S, (2) v =VmaxS/(Km+S)(1+(I/Ki)), (3) v =VmaxS/Km (1+(I/Ki))+S(1+(I/αKi)), where v is the velocity of the reaction; S and I are the substrate and inhibitor concentrations, respectively; K i is the inhibition constant describing the affinity of the inhibitor for the enzyme; K m is the substrate concentration at half of the maximum velocity (V max) of the reaction; α reflects the effect of inhibitor on the affinity of the enzyme for its substrate. The type of inhibition was determined from the enzyme inhibition models. Goodness of fit to kinetic and inhibition models was assessed from the F statistic, r ^2 values, parameter standard error estimates, and 95% confidence intervals. Kinetic constants are reported as the mean value ± standard error of the parameter estimate."}}}
{"substance": "Icariside II", "values": [{"measurement": "Inhibition type against UGT1A4", "setting": "UGT1A4", "value": "competitive"}, {"measurement": "Inhibition type against UGT2B7", "setting": "UGT2B7; recombinant UGT2B7", "value": "mixed"}, {"measurement": "α of mixed inhibition against UGT2B7", "setting": "UGT2B7; recombinant UGT2B7, mixed inhibition model", "value": 3.3}, {"measurement": "Inhibition type against UGT1A7", "setting": "UGT1A7", "value": "noncompetitive"}]}
